According to the supplement of paper PMC13380429:

Legend:
A549-ACE2 [1] = test: drug-induced phospholipidosis relative to tamoxifen; higher = more phospholipidosis
U2OS [2] = test: cell viability relative to DMSO; higher = less toxic; conditions: 72 h
HepG2 [3] = test: as above; conditions: 72 h
Calu-3 [4] = test: as above; conditions: 72 h
Caco-2 [5] = test: as above; conditions: 72 h
Vero E6 [6] = test: as above; conditions: 72 h
U2OS [7] = test: drug sensitivity score (DSS) for viability; higher = more toxic; extreme values may be limits of the assay; conditions: 72 h
HepG2 [8] = test: as above; conditions: 72 h
Calu-3 [9] = test: as above; conditions: 72 h
Caco-2 [10] = test: as above; conditions: 72 h
Vero E6 [11] = test: as above; conditions: 72 h
[12] = system: A549-ACE2 infected with SARS-CoV-2; test: SARS-CoV-2 infection rate relative to DMSO; higher = more infection; conditions: 24 h
U2OS [13] = test: relative viability EC50 (midpoint between 100% and the lowest measured viability); higher = less toxic; conditions: 72 h
HepG2 [14] = test: as above; conditions: 72 h
Calu-3 [15] = test: as above; conditions: 72 h
Caco-2 [16] = test: as above; conditions: 72 h
Vero E6 [17] = test: as above; conditions: 72 h
[18] = system: A549-ACE2 infected with SARS-CoV-2; test: cell count relative to DMSO; higher = less toxic; conditions: 24 h
[19] = system: A549-ACE2 infected with SARS-CoV-2; test: morphology score (similarity to uninfected cells); higher = more like uninfected cells; conditions: 24 h
A549-ACE2 [20] = test: phospholipidosis EC50; higher = less potent phospholipidosis inducer

N#CC[C@@H](C1CCCC1)n1cc(-c2ncnc3[nH]ccc23)cn1 [ruxolitinib-(S)]
drug-induced phospholipidosis [%], A549-ACE2 [1]
Conditions	0.3 µM	0.833333 µM	3.33333 µM	6.66667 µM	10 µM	30 µM
24 h	-0.6	-1.86	-0.62	3.24	4.69	32.2
48 h	-3.03	-3.25	-1.5	0.99	1.91	–
72 h	-3.98	-4.86	-3.52	-0.549	1.82	–

Conditions	SARS-CoV-2 infection rate, [12] [%]	cell count, [18] [%]	cell viability, Caco-2 [5] [%]	cell viability, Calu-3 [4] [%]	cell viability, HepG2 [3] [%]	cell viability, U2OS [2] [%]	cell viability, Vero E6 [6] [%]	morphology score, [19]
1 nM	–	–	103	91.4	101	100	98.5	–
10 nM	–	–	99	97.1	96	99.1	101	–
100 nM	–	–	106	99	92.3	99.3	98.2	–
0.3 µM	109	88	–	–	–	–	–	0.15
1000 nM	–	–	93.6	102	103.3	97.5	96.5	–
3 µM	110	100	–	–	–	–	–	0.17
10000 nM	–	–	99.6	112	97.4	95.8	94.05	–
10 µM	112	91	–	–	–	–	–	-0.08
30 µM	119	36	–	–	–	–	–	-0.15

Conditions	drug sensitivity score	relative viability EC50 [µM]
Caco-2 [10]	0	–
Caco-2 [16]	–	> 10
Calu-3 [9]	0	–
Calu-3 [15]	–	> 10
HepG2 [8]	0	–
HepG2 [14]	–	> 10
U2OS [7]	0	–
U2OS [13]	–	> 10
Vero E6 [11]	0	–
Vero E6 [17]	–	> 10

O=C1C=C2C=C[C@@H]3C[C@@]2(O1)[C@H]1CCCCN31 [securinine]
drug-induced phospholipidosis [%], A549-ACE2 [1]
Conditions	0.3 µM	0.833333 µM	3.33333 µM	6.66667 µM	10 µM	30 µM
24 h	4.04	-1.29	-2.26	-0.14	0.15	3.11
48 h	4.43	0.73	0.81	3.64	1.66	8.62
72 h	5.5	-2.31	1.12	1.57	2.55	11.9

Conditions	SARS-CoV-2 infection rate, [12] [%]	cell count, [18] [%]	cell viability, Caco-2 [5] [%]	cell viability, Calu-3 [4] [%]	cell viability, HepG2 [3] [%]	cell viability, U2OS [2] [%]	cell viability, Vero E6 [6] [%]	morphology score, [19]
1 nM	–	–	76.4	96.5	94.9	103	93.1	–
10 nM	–	–	91.5	88.5	103	94.9	101	–
100 nM	–	–	104	101	104	103	92.5	–
0.3 µM	108	92	–	–	–	–	–	-0.16
1000 nM	–	–	90.1	92.1	108	95.1	97.5	–
3 µM	107	97	–	–	–	–	–	-0.26
10000 nM	–	–	99.5	98.5	99.8	94.9	101	–
10 µM	109	103	–	–	–	–	–	-0.24
30 µM	87	84	–	–	–	–	–	-0.11

Conditions	drug sensitivity score	relative viability EC50 [µM]
Caco-2 [10]	0	–
Caco-2 [16]	–	> 10
Calu-3 [9]	0	–
Calu-3 [15]	–	> 10
HepG2 [8]	0	–
HepG2 [14]	–	> 10
U2OS [7]	0	–
U2OS [13]	–	> 10
Vero E6 [11]	0	–
Vero E6 [17]	–	> 10

Fc1ccc(-n2cc(CCCCN3CCC4(CC3)OCc3ccccc34)c3ccccc32)cc1 [siramesine]
drug-induced phospholipidosis [%], A549-ACE2 [1]
Conditions	0.3 µM	0.833333 µM	3.33333 µM	6.66667 µM	10 µM
24 h	2.74	5.08	32.4	33.5	24.5
48 h	4.1	0.61	22.6	47.9	–
72 h	0.56	0.623	23.8	61.4	–

Conditions	SARS-CoV-2 infection rate [%]	cell count [%]	cell viability [%]	morphology score	phospholipidosis EC50 [µM]
A549-ACE2 [20], 72 h	–	–	–	–	4.1
Caco-2 [5], 1 nM	–	–	97.3	–	–
Caco-2 [5], 10 nM	–	–	104	–	–
Caco-2 [5], 100 nM	–	–	85.1	–	–
Caco-2 [5], 1000 nM	–	–	101	–	–
Caco-2 [5], 10000 nM	–	–	37.5	–	–
Calu-3 [4], 1 nM	–	–	88.8	–	–
Calu-3 [4], 10 nM	–	–	94.3	–	–
Calu-3 [4], 100 nM	–	–	88.2	–	–
Calu-3 [4], 1000 nM	–	–	104	–	–
Calu-3 [4], 10000 nM	–	–	17.8	–	–
HepG2 [3], 1 nM	–	–	97.7	–	–
HepG2 [3], 10 nM	–	–	100	–	–
HepG2 [3], 100 nM	–	–	93.5	–	–
HepG2 [3], 1000 nM	–	–	98.6	–	–
HepG2 [3], 10000 nM	–	–	24	–	–
U2OS [2], 1 nM	–	–	100	–	–
U2OS [2], 10 nM	–	–	97.7	–	–
U2OS [2], 100 nM	–	–	95.6	–	–
U2OS [2], 1000 nM	–	–	103	–	–
U2OS [2], 10000 nM	–	–	53.2	–	–
Vero E6 [6], 1 nM	–	–	98.9	–	–
Vero E6 [6], 10 nM	–	–	93.5	–	–
Vero E6 [6], 100 nM	–	–	99.2	–	–
Vero E6 [6], 1000 nM	–	–	89	–	–
Vero E6 [6], 10000 nM	–	–	73.5	–	–
[12], 0.1 µM	93	–	–	–	–
[12], 0.3 µM	50	–	–	–	–
[12], 1 µM	60	–	–	–	–
[12], 3 µM	26	–	–	–	–
[18], 0.1 µM	–	111	–	–	–
[18], 0.3 µM	–	114	–	–	–
[18], 1 µM	–	117	–	–	–
[18], 3 µM	–	111	–	–	–
[19], 0.1 µM	–	–	–	0.38	–
[19], 0.3 µM	–	–	–	0.75	–
[19], 1 µM	–	–	–	0.69	–
[19], 3 µM	–	–	–	0.84	–

Conditions	drug sensitivity score	relative viability EC50 [µM]
Caco-2 [10]	3.3	–
Caco-2 [16]	–	3.26
Calu-3 [9]	4.2	–
Calu-3 [15]	–	3.44
HepG2 [8]	4.4	–
HepG2 [14]	–	3.03
U2OS [7]	2.2	–
Vero E6 [11]	2.2	–

Cc1[nH]c(/C=C2\C(=O)Nc3ccc(F)cc32)c(C)c1C(=O)NCCN1CCCC1 [toceranib]
drug-induced phospholipidosis [%], A549-ACE2 [1]
Conditions	0.3 µM	0.833333 µM	3.33333 µM	6.66667 µM	10 µM	30 µM
24 h	4.88	-0.73	12.9	38.6	54.2	119
48 h	5.94	-0.83	1.11	20.1	38.4	–
72 h	4.25	-2.8	-0.0471	16	34	–

Conditions	SARS-CoV-2 infection rate [%]	cell count [%]	cell viability [%]	morphology score	phospholipidosis EC50 [µM]
A549-ACE2 [20], 24 h	–	–	–	–	16.5
Caco-2 [5], 1 nM	–	–	95.6	–	–
Caco-2 [5], 10 nM	–	–	94.8	–	–
Caco-2 [5], 100 nM	–	–	98.8	–	–
Caco-2 [5], 1000 nM	–	–	105	–	–
Caco-2 [5], 10000 nM	–	–	92.9	–	–
HepG2 [3], 1 nM	–	–	99.4	–	–
HepG2 [3], 10 nM	–	–	107	–	–
HepG2 [3], 100 nM	–	–	97.3	–	–
HepG2 [3], 1000 nM	–	–	106	–	–
HepG2 [3], 10000 nM	–	–	53.9	–	–
U2OS [2], 1 nM	–	–	95.5	–	–
U2OS [2], 10 nM	–	–	97.9	–	–
U2OS [2], 100 nM	–	–	103	–	–
U2OS [2], 1000 nM	–	–	96.3	–	–
U2OS [2], 10000 nM	–	–	85.2	–	–
Vero E6 [6], 1 nM	–	–	89.9	–	–
Vero E6 [6], 10 nM	–	–	99.1	–	–
Vero E6 [6], 100 nM	–	–	101	–	–
Vero E6 [6], 1000 nM	–	–	106	–	–
Vero E6 [6], 10000 nM	–	–	73.2	–	–
[12], 0.1 µM	88	–	–	–	–
[12], 0.3 µM	107	–	–	–	–
[12], 1 µM	100	–	–	–	–
[12], 3 µM	80	–	–	–	–
[18], 0.1 µM	–	107	–	–	–
[18], 0.3 µM	–	103	–	–	–
[18], 1 µM	–	102	–	–	–
[18], 3 µM	–	111	–	–	–
[19], 0.1 µM	–	–	–	0.22	–
[19], 0.3 µM	–	–	–	-0.03	–
[19], 1 µM	–	–	–	0.33	–
[19], 3 µM	–	–	–	0.51	–

Conditions	drug sensitivity score	relative viability EC50 [µM]
Caco-2 [10]	0	–
Caco-2 [16]	–	> 10
HepG2 [8]	2	–
U2OS [7]	0.5	–
U2OS [13]	–	> 10
Vero E6 [11]	0.8	–
